Literature values in publication PMC11054727 (Viruses, 2024).
Like-named read-outs stand apart in the source and are kept apart here.

How the values were obtained:
SARS-CoV-2 [1] = conditions: cited from earlier work
SARS-CoV-2 [2] = conditions: cited from earlier work; remark: listed apart in the source
SARS-CoV-2 Spike = conditions: read-out: Spike-mediated fusion activity EC50; cited from earlier work
hCoV-OC43 = test system: hCoV-OC43; set-up: method as in ref 2 = [2]; conditions: read-out: EC50 hCoV-OC43 infections; cited from earlier work
[3] = test system: Nsp5 Main protease (Mpro); conditions: cited from earlier work
SARS-CoV-2 [4] = test system: SARS-CoV-2; set-up: method as in ref 23; conditions: Table S1, experimental antiviral activity; read-out: Observed EC50; cited from earlier work
SARS-CoV-2 pseudovirus = test system: SARS-CoV-2 pseudovirus; set-up: method as in ref 48 = [48]; conditions: read-out: EC50 pseudovirus entry; cited from earlier work
[5] = experimental CPE data, read-out: EC50 CPE

In the case of `CC(C)/N=c1\cc2n(-c3ccc(Cl)cc3)c3ccccc3nc-2cc1Nc1ccc(Cl)cc1` [compound 2, Clofazimine], the EC50 (SARS-CoV-2 [1]; read-out: consensus EC50 antiviral activity) is given as 0.31 µM, the “extent of inhibition in infection assays” value (SARS-CoV-2 [2]; Vero E6, Huh7, and Caco-2 cells) is given as “full inhibitor” and the EC50 (SARS-CoV-2 [2]; same study as hCoV-OC43, read-out: EC50 SARS-CoV-2 infections) is given as 0.01 µM. The EC50 (SARS-CoV-2 Spike) was 2.56 µM, the EC50 (hCoV-OC43) was 0.35 µM and the “Nsp5 Main protease (Mpro) activity” value [3] was “zero activity”.
In the case of `CCOC(=O)c1c(CSc2ccccc2)n(C)c2cc(Br)c(O)c(CN(C)C)c12` [compound 1, Arbidol], the EC50 (SARS-CoV-2 [4]) is listed as 10 µM, the “extent of inhibition in CPE assays” value (SARS-CoV-2 [1]) is listed as “partial inhibitor” and the EC50 (SARS-CoV-2 [1]; [5]) is listed as 5.6 µM.
For `COc1ccc(-n2c3cc(=NC4CC4)c(Nc4ccc(F)cc4)cc-3nc3ccccc32)cc1` [15h], the EC50 (SARS-CoV-2 [4]) is given as 33.1 µM.
In the case of `CC(C)N=c1cc2n(-c3ccc(Cl)cc3)c3ccccc3nc-2cc1NCc1ccc(Cl)cc1` [7k], the EC50 (SARS-CoV-2 [4]) is listed as 12.4 µM.
In the case of `C=C[C@@]1(C)CC(=O)[C@]2(O)[C@@]3(C)[C@@H](O)CCC(C)(C)[C@@H]3[C@H](OC(=O)CCN(C)C)[C@H](OC(C)=O)[C@@]2(C)O1.Cl` [NKH477], the “extent of inhibition in CPE assays” value (SARS-CoV-2 [1]; Vero E6 cells) is listed as “partial inhibitors”.
For `Clc1ccc(Nc2cc3nc4ccccc4n(-c4ccc(Cl)cc4)c-3cc2=NC2CC2)cc1` [7a], the EC50 (SARS-CoV-2 [4]) is given as 141 µM.
In the case of `CC(C)N=c1cc2n(-c3ccc(F)cc3)c3ccccc3nc-2cc1Nc1ccc(Cl)cc1` [15a], the EC50 (SARS-CoV-2 [4]) is given as 29.6 µM.
In the case of `COc1ccc(-n2c3cc(=NC(C)C)c(Nc4cccc(F)c4)cc-3nc3ccccc32)cc1` [15f], the EC50 (SARS-CoV-2 [4]) is given as 14.6 µM.
In the case of `CCOC(=O)c1c(CS(=O)(=O)c2ccc(Cl)cc2)n(C)c2cc(Br)c(O)c(CN(C)C)c12` [1b], the EC50 (SARS-CoV-2 [1]; [5]) is listed as 29.5 µM.
For `CC(C)N=c1cc2n(-c3ccc(F)cc3)c3ccccc3nc-2cc1Nc1ccc(F)cc1` [15b], the EC50 (SARS-CoV-2 [4]) is given as 81.1 µM.
In the case of `CCC(CC)COC(=O)[C@H](C)N[P@](=O)(OC[C@H]1O[C@@](C#N)(c2ccc3c(N)ncnn23)[C@H](O)[C@@H]1O)Oc1ccccc1` [Remdesivir], the “extent of inhibition in CPE assays” value (SARS-CoV-2 [1]) is listed as “full inhibitors”.
In the case of `CN(C)CCOc1ccc(/C(=C(/CCCl)c2ccccc2)c2ccccc2)cc1` [compound 3, Toremifene], the EC50 (SARS-CoV-2 [2]; read-out: EC50 live SARS-CoV-2 infections) is given as 3.58 µM and the EC50 (SARS-CoV-2 pseudovirus) is given as 1.92 µM.
For `CC(C)N=c1cc2n(-c3ccc(Cl)cc3)c3ccccc3nc-2cc1Nc1ccccc1` [7c], the EC50 (SARS-CoV-2 [4]) is given as 40.9 µM.
For `COc1ccc(Nc2cc3nc4ccccc4n(-c4ccc(Cl)cc4)c-3cc2=NC(C)C)cc1` [7g], the EC50 (SARS-CoV-2 [4]) is given as 16.6 µM.
For `COc1ccc(Nc2cc3nc4ccccc4n(-c4ccc(Cl)cc4)c-3cc2=N)c(OC)c1` [6e], the EC50 (SARS-CoV-2 [4]) is given as 16.1 µM.
For `CC(C)N=c1cc2n(-c3ccc(Cl)cc3)c3ccccc3nc-2cc1Nc1ccc(OC(F)(F)F)cc1` [7i], the EC50 (SARS-CoV-2 [4]) is given as 10 µM.
In the case of `COc1ccc(-n2c3cc(=NC(C)C)c(Nc4ccc(F)cc4)cc-3nc3ccccc32)cc1` [15g], the EC50 (SARS-CoV-2 [4]) is given as 10 µM.
For `CC(CN(C)C)CN1c2ccccc2CCc2ccccc21` (stereo not drawn) [trimipramine], the “extent of inhibition in CPE assays” value (SARS-CoV-2 [1]; Vero E6 cells) is listed as “partial inhibitors”.
In the case of `COc1ccc(Nc2cc3nc4ccccc4n(-c4ccc(Cl)cc4)c-3cc2=N)cc1` [6d], the EC50 (SARS-CoV-2 [4]) is listed as 154 µM.
